In patent US6539252B1, “Method and apparatus for the treatment of blood borne pathogens such as immunodeficiency virus” (priority 1996, dated 2003):

Tests used:
[1] = tested on: bacterial pathogens; conditions: silver ions generated in small quantities in the blood stream; cited from earlier work
[2] = tested on: mammalian cells; conditions: at less than twenty parts per billion in the blood stream; cited from earlier work
[3] = human blood serum; cited from earlier work
[4] = tested on: HIV virus; test: treatment of HIV infected human subjects with electrically generated silver ions; viral load by RNA PCR quantification, T4 cell count; assay type: in vivo
Excerpt: The present invention operates by providing a low intensity direct current to electrode 35. By placing the electrode pad 98 on the surface of the patient in the vicinity of electrode 35, the low intensity direct current will cause the electrode 35 to act as an anode, thereby releasing metal ions into the bloodstream of the patient. These positively charged metal ions are attracted to the negative polarity of the virus, thereby destabilizing it, as discussed above. […] The use of such a large blood vessel is preferred because metal ions such as the preferred silver ion have a half life of approximately seven seconds. The device as will be seen below, creates an average output of four-hundred billion silver cations per second. With an average blood volume of four liters passing by the electrode 35 approximately twice per minute, the probability of a virus passing by the electrode 35 and being bonded to a metal ion increases when the volume of blood available to carry the virus is higher.
(§1) To balance the need for large numbers of silver ions with the need to keep the amount of silver within safer ranges for humans, the power supply 110 supplies two and one-half microamps of current for twelve minutes at the beginning of treatment. This produces 1.56×10(13) ions of silver per second. During the twelve minutes (i.e., seven-hundred twenty seconds) that the power supply 110 supplies two and one-half microamps of current, 0.0018 Coulombs enters the bloodstream (i.e., seven-hundred and twenty seconds multiplied by two and one-half microamps). Under Faraday's law, one mole of silver ions equals 96485 Coulombs. Further, one mole of silver ions weighs 107.87 grams. Thus, in the initial twelve minute operating period, nearly two micrograms (1.94 micrograms) of silver ions are introduced into the bloodstream.
After the initial twelve minute operating period, the low intensity direct current provided by power supply 110 is reduced to one-hundred twenty five nanoamps. This causes the production of silver ions to be produced at a rate of seven-hundred seventy-four billion ions per second. Under a preferred embodiment of the present invention, this level of electric current is maintained for a period of seventy-one hours and forty-eight minutes. During this time (i.e., 258,480 seconds) that the power supply 110 supplies one-hundred twenty-five nanoamps of current, […] enters the bloodstream (i.e., 258,480 seconds multiplied by one-hundred twenty-five nanoamps). Under Faraday's law, one mole of silver ions equals 96485 Coulombs. Further, one mole of silver ions weighs 107.87 grams. Thus, during this entire period, only approximately 36.1 micrograms of silver ions are introduced into the bloodstream. Thus, in the entire seventy-two hour treatment, only 38.1 micrograms of silver have been introduced into the patient's bloodstream.
In a first example, the human patient had 2,165,823 copies of the HIV virus per milliliter of blood by the RNA PCR quantification test method. In addition, this patient's T4 cell (Helper) count was at 18. This particular subject was experiencing serious kidney malfunction prior to treatment. Twenty-four hours after treatment, this patient's viral load was reduced to 1,336,817 copies of the HIV virus per milliliter of blood while the T4 cell count was 11. Because of this patient's kidney malfunction, it was suspected that most of the viral copies detected during the RNA PCR quantization test had been denatured but had not yet been removed from the patient by the kidneys. Thus, one month after treatment, the viral load was measured again and found to be reduced to 621,215 copies of the HIV virus per milliliter of blood.
Thus, the electrode 35 was placed in the subclavian vein. This patient was subjected to twelve minutes of treatment at 2.5 microamps and then only forty-seven hours and forty-eight minutes of treatment at one-hundred twenty-five nanoamps. […]

[5] = tested on: eukaryotic microorganisms; conditions: levels as low as; cited from earlier work
[6] = calculated silver content in blood serum during treatment; assay type: in vivo, human; conditions: by Faraday's law
Excerpt: as §1
After the initial twelve minute operating period, the low intensity direct current provided by power supply 110 is reduced to one-hundred twenty five nanoamps. This causes the production of silver ions to be produced at a rate of seven-hundred seventy-four billion ions per second. Under a preferred embodiment of the present invention, this level of electric current is maintained for a period of seventy-one hours and forty-eight minutes. […]

[7] = tested on: feline immunodeficiency virus (FIV); test: treatment of a cat infected with feline immunodeficiency virus; assay type: in vivo; conditions: seven year old male cat with FIV; about four micrograms silver in 24 min, then one-half microgram per hour for 90 min
Excerpt: The methods of this invention have also been successfully tested on a different virus and a different host: namely, a cat infected with feline immunodeficiency virus (“FIV”). A seven year old male house cat weighing ten pounds and ten and three-quarter ounces had “heavy third eyelid”, some hair loss, eleven bite marks along his back and rump, and a wound to the top of the ear, all indicative of acute disease. The cat was anesthetized with ketamine, a catheter was placed in the neck, and the negative electrode was placed on the underchest. Approximately four micrograms of silver was delivered in twenty-four minutes, followed by one-half a microgram of silver per hour for ninety minutes.

## [Ag+] [silver ions]
[1]
  quantity in the blood stream effective in destroying bacterial pathogens: less than twenty
[2]
  toxicity to mammalian cells: totally nontoxic
[3]
  silver in the blood serum humans can withstand without a toxic reaction: thirty to eighty
[4]; first human patient
  clinical outcome after treatment: immediately felt improved health, was able to eat solid food, and experienced a dramatic increase in quality of life
[4]; first human patient, kidney malfunction, baseline 2,165,823, twenty-four hours after treatment, RNA PCR
  viral load: 1,336,817 copies of the HIV virus per milliliter of blood
[4]; first human patient, baseline 18, twenty-four hours after treatment
  T4 cell count: 11
[4]; first human patient, baseline 2,165,823, one month after treatment
  viral load: 621,215 copies of the HIV virus per milliliter of blood
[4]; second human subject
  clinical outcome after treatment: immediately felt improved health and was able to eat solid food
[4]; second human subject, electrode in subclavian vein, 12 min at 2.5 microamps then 47 h 48 min at 125 nanoamps, baseline 1,814,466, forty-eight hours after treatment, RNA PCR
  viral load: 394,972 copies of the HIV virus per milliliter of blood
[4]; second human subject, baseline 17, forty-eight hours after treatment
  T4 cell count: 18
[4]; third human subject, also on AZT
  clinical outcome after treatment: immediately felt improved health, was able to eat solid food, and experienced a dramatic increase in quality of life
[4]; third human subject, also on AZT, baseline 5, twenty-four hours after treatment
  T4 cell count: 6
[4]; third human subject, also undergoing treatment with AZT, 12 min at 2.5 microamps then 70 h 18 min at 125 nanoamps, baseline 693,832, twenty-four hours after treatment, RNA PCR
  viral load: 634 copies of the HIV virus per milliliter of blood
[5]
  level toxic to eukaryotic microorganisms: one to five
[6]; entire seventy-two hour treatment (38.1 micrograms silver)
  silver content in the blood serum: less than nine
[6]; initial twelve minutes at two and one-half microamps (1.94 micrograms silver)
  silver content in the blood serum: less than five
[7]
  clinical outcome the next morning: returned to normal activity and appetite
